Test results: patent US8791267B2, “Biaryl PDE4 inhibitors for treating inflammatory, cardiovascular and CNS disorders” (Decode Genetics EHF, priority 2007, dated 2014)
Counter-ions that a name gives are not always drawn. Like-named read-outs stand apart in the source and are kept apart here.

What was measured:
PDE4 = PDE4 (Homo sapiens, UniProt Q08499); assay: In-vitro assay for PDE4 enzymes, real-time enzyme-coupled spectrophotometric assay (Table 9); assay type: biochemical
PDE4B = PDE4B (Homo sapiens, UniProt Q07343); assay: In-vitro assay for PDE4 enzymes, real-time enzyme-coupled spectrophotometric assay, PDE4B Activity (Table 10); assay type: biochemical
Chain of PDE4B (Q07343 whole entry): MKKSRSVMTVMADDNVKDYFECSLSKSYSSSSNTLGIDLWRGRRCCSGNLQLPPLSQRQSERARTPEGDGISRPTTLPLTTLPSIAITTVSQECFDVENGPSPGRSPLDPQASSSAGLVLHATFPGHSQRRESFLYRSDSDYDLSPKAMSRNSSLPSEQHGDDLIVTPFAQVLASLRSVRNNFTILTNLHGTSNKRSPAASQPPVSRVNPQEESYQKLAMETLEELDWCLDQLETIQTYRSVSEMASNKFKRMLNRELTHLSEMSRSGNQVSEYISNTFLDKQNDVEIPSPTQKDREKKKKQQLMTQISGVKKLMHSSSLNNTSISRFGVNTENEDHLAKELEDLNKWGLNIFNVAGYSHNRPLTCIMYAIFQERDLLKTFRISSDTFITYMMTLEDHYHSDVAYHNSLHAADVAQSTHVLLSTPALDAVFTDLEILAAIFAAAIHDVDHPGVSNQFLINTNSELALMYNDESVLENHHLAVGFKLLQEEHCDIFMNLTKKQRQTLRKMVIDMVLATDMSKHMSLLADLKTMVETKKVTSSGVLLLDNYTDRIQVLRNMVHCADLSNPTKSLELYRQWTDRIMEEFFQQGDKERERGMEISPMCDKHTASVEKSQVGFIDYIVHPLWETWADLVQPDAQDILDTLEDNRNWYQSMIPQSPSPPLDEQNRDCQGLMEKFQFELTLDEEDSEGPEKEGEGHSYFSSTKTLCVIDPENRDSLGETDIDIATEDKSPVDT

[1] = human PDE4D, activity class, Table 9, read-out: hPDE4D
[2] = human PDE4B (hPDE4B), enzyme-coupled spectrophotometric assay, read-out: PDE4B Activity, hPDE4B

Chain of PDE4 (Q08499 whole entry): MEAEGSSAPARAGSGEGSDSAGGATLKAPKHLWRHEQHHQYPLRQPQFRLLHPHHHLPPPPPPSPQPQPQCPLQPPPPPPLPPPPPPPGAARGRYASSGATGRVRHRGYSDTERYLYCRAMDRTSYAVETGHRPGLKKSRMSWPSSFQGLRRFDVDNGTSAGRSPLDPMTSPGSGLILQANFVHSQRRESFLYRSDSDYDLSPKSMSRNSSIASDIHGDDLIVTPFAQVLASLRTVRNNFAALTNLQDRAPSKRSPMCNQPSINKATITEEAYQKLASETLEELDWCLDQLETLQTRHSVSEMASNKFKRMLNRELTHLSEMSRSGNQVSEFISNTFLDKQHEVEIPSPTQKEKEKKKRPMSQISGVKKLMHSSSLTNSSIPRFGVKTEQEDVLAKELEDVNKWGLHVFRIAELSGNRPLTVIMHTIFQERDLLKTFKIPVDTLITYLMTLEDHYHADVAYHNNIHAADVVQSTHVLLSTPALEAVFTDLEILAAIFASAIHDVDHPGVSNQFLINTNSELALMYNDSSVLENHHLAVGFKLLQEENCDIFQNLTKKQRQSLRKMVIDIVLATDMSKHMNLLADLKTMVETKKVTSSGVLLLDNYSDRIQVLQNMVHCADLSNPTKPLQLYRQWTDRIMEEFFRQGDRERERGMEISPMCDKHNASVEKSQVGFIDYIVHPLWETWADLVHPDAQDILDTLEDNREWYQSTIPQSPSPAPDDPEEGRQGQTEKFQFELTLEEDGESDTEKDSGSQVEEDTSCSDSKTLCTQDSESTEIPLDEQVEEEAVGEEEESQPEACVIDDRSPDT

| Compound | IC50 (PDE4; [1]) | IC50 (PDE4B; [2]) | IC50 (PDE4) | IC50 (PDE4B) |
| --- | --- | --- | --- | --- |
| COc1ccc(Cc2ccc(N)nc2)nc1-c1cccc(Cl)c1 [P-379, 5-[6-(3-chloro-phenyl)-5-methoxy-pyridin-2-ylmethyl]-pyridin-2-ylamine] | < 5 µM | < 5 µM | – | – |
| COc1ccc(Cc2ccc(C(C)(C)N)nc2)cc1-c1cccc(Cl)c1 [P-600, hydrochloride] | < 5 µM | 21 to 40 µM | – | – |
| COc1ccc(Oc2ccc(N)cc2)c(F)c1-c1cccc(C(C)=O)c1 [P-283, 4-(3′-Acetyl-2-fluoro-6-methoxy-biphenyl-3-yloxy)-phenyl-amine hydrochloride salt] | < 5 µM | < 5 µM | – | – |
| COc1ccc(Cc2ccc(CNC(C)=O)c(F)c2)c(F)c1-c1cccc(C(C)=O)c1 [P-329] | < 5 µM | < 5 µM | – | – |
| COc1ccc(Cc2ccc(NC(=O)CN(C)C)cc2)cc1-c1cccc([N+](=O)[O-])c1 [P-144] | < 5 µM | < 5 µM | – | – |
| COc1ccc(Cc2cnc(NC(=O)NCCCl)nc2)c(F)c1-c1cccc(C(C)=O)c1 [P-366, 1-[5-(3′-Acetyl-2-fluoro-6-methoxy-biphenyl-3-ylmethyl)-pyrimidin-2-yl]-3-(2-chloro-ethyl)-urea] | – | – | < 5 µM | < 5 µM |
| Nc1ccc(Cc2ccc(OC(F)F)c(-c3cccc(Br)c3)c2F)cc1 [P-317] | < 5 µM | < 5 µM | – | – |
| COc1ccc(Cc2ccc(F)cc2)cc1-c1ccc2nonc2c1 [P-004, 5-[5-(4-Fluoro-benzyl)-2-methoxy-phenyl]-benzo[1,2,5]oxadiazole] | < 5 µM | 5 to 20 µM | – | – |
| [2H]C(O)(c1ccc(NC(N)=O)cc1)c1ccc(OC)c(-c2cccc(Cl)c2)c1F (stereo not shown) [P-539, {4-[(3′-chloro-2-fluoro-6-methoxy-biphenyl-3-yl)-hydroxy-deutero-methyl]-phenyl}-urea] | < 5 µM | 21 to 40 µM | – | – |
| COc1ccc(CN2CCCC2=O)cc1-c1cccc(SC)c1 [P-245, 1-(6-methoxy-3′-methylsulfanyl-biphenyl-3-ylmethyl)-pyrrolidin-2-one] | 5 to 20 µM | < 5 µM | – | – |
| COc1ccc(C(=O)c2ccc(N)cc2)cc1-c1cccc(F)c1 [P-579] | < 5 µM | < 5 µM | – | – |
| COc1ccc(Cc2ccc(C(C)(C)O)nc2)c(F)c1-c1cccc(Cl)c1 [P-587, 2-[5-(3′-Chloro-2-fluoro-6-methoxy-biphenyl-3-ylmethyl)-pyridin-2-yl]-propan-2-ol hydrochloride] | < 5 µM | < 5 µM | – | – |
| COC(=O)Nc1nnc(Cc2ccc(OC)c(-c3cccc(Cl)c3)c2F)s1 [P-342, Methyl[5-(3′-Chloro-2-fluoro-6-methoxy-biphenyl-3-ylmethyl)-[1,3,4]thiadiazol-2-yl]-carbamate] | < 5 µM | < 5 µM | – | – |
| COc1ccc(Cc2ccc(NC(C)=O)cc2)c(F)c1-c1cccc(Br)c1 [P-168] | < 5 µM | < 5 µM | – | – |
| COc1ccc(Cc2ccc(NC(N)=O)cc2)nc1-c1cccc(Cl)c1 [P-376, {4-[6-(3-chloro-phenyl)-5-methoxy-pyridin-2-ylmethyl]-phenyl}-urea] | < 5 µM | < 5 µM | – | – |
| COc1ccc(Cc2ccc(-n3cnnn3)cc2)c(F)c1-c1cccc(Cl)c1 [P-404, 1-[4-(3′-chloro-2-fluoro-6-methoxy-biphenyl-3-ylmethyl)-phenyl]-1H-tetrazole] | < 5 µM | < 5 µM | – | – |
| COc1ccc(Cc2ccc(C(N)=O)cc2)c(F)c1-c1cccc(C(C)=O)c1 [P-305, 4-(3′-Acetyl-2-fluoro-6-methoxy-biphenyl-3-ylmethyl)-benzamide] | < 5 µM | 5 to 20 µM | – | – |
